# Marks after values point to notes of the source that are not given here.
# What was measured:
# hSERT [1] = target: T1, hSERT (Homo sapiens, UniProt P31645); assay: fluorescence-based serotonin reuptake inhibition assay (Tsuruda et al. 2010; data indicated by an asterisk); assay type: cell-based; parameters: expressed in transfected cells; host or cells: HEK-293; details: fluorescence-based assay (values with asterisk); for IC50: read-out: SERT pIC50 (converted)
# hSERT [2] = target: T1, hSERT; assay: hSERT membrane radioligand binding assay (3H-citalopram), Assay 1; details: SERT pKi, hSERT HEK-293 membranes, 1.0 nM 3H-citalopram; values given as lower bounds
# hNET [3] = target: T2, hNET (Homo sapiens, UniProt P23975); assay: fluorescence-based norepinephrine reuptake inhibition assay (Tsuruda et al. 2010; data indicated by an asterisk); assay type: cell-based; parameters: expressed in transfected cells; host or cells: HEK-293; details: norepinephrine reuptake inhibition, fluorescence-based assay (values with asterisk); for IC50: read-out: NET pIC50 (converted)
# T2 sequence (P23975 whole entry): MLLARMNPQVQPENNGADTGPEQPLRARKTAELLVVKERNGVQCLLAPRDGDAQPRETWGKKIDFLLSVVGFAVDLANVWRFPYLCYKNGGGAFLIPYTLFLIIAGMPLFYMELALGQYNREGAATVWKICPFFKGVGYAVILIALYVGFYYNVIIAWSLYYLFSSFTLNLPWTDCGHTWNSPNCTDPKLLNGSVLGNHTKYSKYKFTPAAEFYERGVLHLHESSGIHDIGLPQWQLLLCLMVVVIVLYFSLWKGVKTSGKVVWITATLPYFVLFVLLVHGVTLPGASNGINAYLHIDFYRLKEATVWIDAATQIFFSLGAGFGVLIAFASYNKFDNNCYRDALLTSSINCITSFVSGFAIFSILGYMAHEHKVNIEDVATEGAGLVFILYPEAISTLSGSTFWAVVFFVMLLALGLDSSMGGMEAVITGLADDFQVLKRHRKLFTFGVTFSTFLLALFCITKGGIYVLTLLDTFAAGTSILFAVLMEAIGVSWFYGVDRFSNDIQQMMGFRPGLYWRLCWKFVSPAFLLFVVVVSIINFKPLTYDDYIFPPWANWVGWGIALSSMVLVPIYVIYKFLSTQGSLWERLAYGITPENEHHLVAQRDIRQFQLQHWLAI
# hNET [4] = target: T2, hNET; assay: hNET membrane radioligand binding assay (3H-nisoxetine), Assay 1
# Experimental: Membrane radioligand binding assays were used to measure inhibition of labeled ligand (^3H-citalopram or ^3H-nisoxetine or ^3H-WIN35428) binding to membranes prepared from cells expressing the respective human recombinant transporter (hSERT or hNET or hDAT) in order to determine the pKi values of test compounds at the transporters.
# Recombinant human embryonic kidney (HEK-293) derived cell lines stably transfected with hSERT or hNET, respectively, were grown in DMEM medium supplemented with 10% dialyzed FBS (for hSERT) or FBS (for hNET), 100 μg/mL penicillin, 100 μg/mL streptomycin, 2 mM L-glutamine and 250 μg/mL of the aminoglycoside antibiotic G418, in a 5% CO2 humidified incubator at 37° C. When cultures reached 80% confluence, the cells were washed thoroughly in PBS (without Ca^2+ and Mg^2+) and lifted with 5 mM EDTA in PBS. Cells were pelleted by centrifugation, resuspended in lysis buffer (10 mM Tris-HCl, pH7.5 containing 1 mM EDTA), homogenized, pelleted by centrifugation, then resuspended in 50 mM Tris-HCl, pH 7.5 and 10% sucrose at 4° C. Protein concentration of the membrane suspension was determined using a Bio-Rad Bradford Protein Assay kit. Membranes were snap frozen and stored at −80° C.
# Binding assays were performed in a 96-well assay plate in a total volume of 200 μl assay buffer (50 mM Tris-HCl, 120 mM NaCl, 5 mM KCl, pH 7.4) with 0.5, 1, and 3 μg membrane protein, for SERT, NET and DAT, respectively.
# Stock solutions (10 mM in DMSO) of test compound were prepared and serial dilutions made using Dilution Buffer (50 mM Tris-HCl, 120 mM NaCl, 5 mM KCl, pH 7.4, 0.1% BSA, 400 μM ascorbic acid).
# Following a 60 minute incubation at 22° C. (or a period sufficient to reach equilibrium), the membranes were harvested by rapid filtration over a 96-well UniFilter GF/B plate, pretreated with 0.3% polyethyleneimine, and washed 6 times with 300 μl wash buffer (50 mM Tris-HCl, 0.9% NaCl, pH 7.5 at 4° C.). Plates were dried overnight at room temperature, approximately 45 μl of MicroScint™-20 (Perkin Elmer) added and bound radioactivity quantitated via liquid scintillation spectroscopy. Inhibition curves and saturation isotherms were analyzed using GraphPad Prism Software package (GraphPad Software, Inc., San Diego, Calif.). IC50 values were generated from concentration response curves using the Sigmoidal Dose Response (variable slope) algorithm in Prism GraphPad.
# T1 sequence (P31645 whole entry): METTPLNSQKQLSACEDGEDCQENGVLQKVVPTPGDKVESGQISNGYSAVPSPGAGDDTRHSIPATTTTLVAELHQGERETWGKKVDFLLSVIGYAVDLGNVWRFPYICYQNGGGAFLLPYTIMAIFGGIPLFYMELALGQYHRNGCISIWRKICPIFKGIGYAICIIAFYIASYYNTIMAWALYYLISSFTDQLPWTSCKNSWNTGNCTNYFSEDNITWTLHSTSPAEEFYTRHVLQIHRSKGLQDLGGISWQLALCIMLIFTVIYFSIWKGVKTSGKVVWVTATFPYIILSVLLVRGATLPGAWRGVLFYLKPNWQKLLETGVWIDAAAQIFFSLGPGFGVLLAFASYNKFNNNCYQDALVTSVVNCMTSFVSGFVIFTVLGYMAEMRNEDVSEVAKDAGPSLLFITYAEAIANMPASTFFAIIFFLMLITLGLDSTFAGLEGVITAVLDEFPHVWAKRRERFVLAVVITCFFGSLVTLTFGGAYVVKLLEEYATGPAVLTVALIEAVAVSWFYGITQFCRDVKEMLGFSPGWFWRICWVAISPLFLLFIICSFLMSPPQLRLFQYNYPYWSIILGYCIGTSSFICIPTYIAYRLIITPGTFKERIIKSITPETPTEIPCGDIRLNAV
SMILES,IC50 (hSERT [1]) [nM],Ki (hSERT [2]) [nM],IC50 (hNET [3]) [nM],Ki (hNET [4]) [nM],SERT pIC50 (hSERT [1]),NET pIC50 (hNET [3])
"CCC[C@@H](Oc1cc(Cl)cc(Cl)c1)[C@@H]1CCNC1 [Example 4-9, (R)-3-[(R)-1-(3,5-Dichlorophenoxy)butyl]pyrrolidine]",≤ 10,≤ 10,≤ 10,≤ 10,,
"CCC[C@@H](Oc1cccc(Cl)c1C(F)(F)F)[C@@H]1CCNC1 [Example 4-71, (R)-3-[(R)-1-(3-Chloro-2-trifluoromethylphenoxy)butyl]pyrrolidine]",≤ 100,≤ 10,≤ 100,≤ 10,,
"CC(C)[C@H](Oc1c(Cl)cccc1Cl)[C@H]1CCNC1 [Example 6-28, (S)-3-[(S)-1-(2,6-Dichlorophenoxy)-2-methylpropyl]pyrrolidine]",≤ 100,≤ 10,≤ 10,≤ 10,,
"CC(C)[C@H](Oc1cccc(Cl)c1C(F)(F)F)[C@H]1CCNC1 [Example 6-49, (S)-3-[(S)-1-(3-Chloro-2-trifluoromethylphenoxy)-2-methylpropyl]pyrrolidine]",≤ 100,≤ 10,≤ 10,≤ 10,,
"CC(C)[C@H](Oc1ccc(Cl)cc1C(F)(F)F)[C@H]1CCNC1 [Example 6-51, (S)-3-[(S)-1-(4-Chloro-2-trifluoromethylphenoxy)-2-methylpropyl]pyrrolidine]",≤ 100,≤ 10,≤ 10,≤ 10,,
"CC(C)C[C@H](Oc1cccc(Cl)c1Cl)[C@H]1CCNC1 [Example 9, (S)-3-[(S)-1-(2,3-Dichlorophenoxy)-3-methylbutyl]pyrrolidine]",≤ 10,≤ 10,≤ 10,≤ 10,,
"CC(C)C[C@H](Oc1cccc(Cl)c1Cl)[C@@H]1CCNC1 [Example 10-24, (R)-3-[(S)-1-(2,3-Dichlorophenoxy)-3-methylbutyl]pyrrolidine]",≤ 10,≤ 10,≤ 10,≤ 10,,
"CC(C)C[C@H](Oc1cccc(F)c1Cl)[C@@H]1CCNC1 [Example 10-28, (R)-3-[(S)-1-(2-Chloro-3-fluorophenoxy)-3-methylbutyl]pyrrolidine]",≤ 10,≤ 10,≤ 10,≤ 10,,
"CC(C)C[C@H](Oc1c(F)ccc(F)c1Cl)[C@H]1CCNC1 [Example 10-63, (S)-3-[(S)-1-(2-Chloro-3,6-difluorophenoxy)-3-methylbutyl]pyrrolidine]",≤ 10,,≤ 10,,,
"CC(C)C[C@H](Oc1c(F)ccc(Cl)c1Cl)[C@H]1CCNC1 [Example 10-65, (S)-3-[(S)-1-(2,3-Dichloro-6-fluorophenoxy)-3-methylbutyl]pyrrolidine]",≤ 10,,≤ 10,,,
"CC(C)C[C@H](Oc1c(F)cc(Cl)cc1F)[C@H]1CCNC1 [Example 10-67, (S)-3-[(S)-1-(4-Chloro-2,6-difluorophenoxy)-3-methylbutyl]pyrrolidine]",≤ 10,,≤ 10,,,
"CC(C)C[C@@H](Oc1ccc(Cl)c(F)c1)[C@H]1CCNC1 [Example 10-71, (S)-3-[(R)-1-(4-Chloro-3-fluorophenoxy)-3-methylbutyl]pyrrolidine]",≤ 10,,≤ 10,,,
"CC(C)C[C@H](Oc1ccc(Cl)c(F)c1)[C@H]1CCNC1 [Example 10-72, (S)-3-[(S)-1-(4-Chloro-3-fluorophenoxy)-3-methylbutyl]pyrrolidine]",≤ 10,,≤ 10,,,
"CC(C)C[C@H](Oc1ccc(Cl)c(Cl)c1)[C@H]1CCNC1 [Example 10-74, (S)-3-[(S)-1-(3,4-Dichlorophenoxy)-3-methylbutyl]pyrrolidine]",≤ 10,,≤ 10,,,
"Cc1cc(O[C@@H](CC(C)C)[C@H]2CCNC2)ccc1Cl [Example 10-75, (S)-3-[(S)-1-(4-Chloro-3-methylphenoxy)-3-methylbutyl]pyrrolidine]",≤ 10,,≤ 10,,,
"Cc1cc(O[C@H](CC(C)C)[C@H]2CCNC2)ccc1Cl [Example 10-76, (S)-3-[(R)-1-(4-Chloro-3-methylphenoxy)-3-methylbutyl]pyrrolidine]",≤ 10,,≤ 100,,,
"CC(C)C[C@@H](Oc1cc(F)cc(Cl)c1)[C@H]1CCNC1 [Example 10-83, (S)-3-[(R)-1-(3-Chloro-5-fluorophenoxy)-3-methylbutyl]pyrrolidine]",≤ 100,,≤ 10,,,
"CC(C)C[C@H](Oc1c(Cl)c(F)cc(F)c1Cl)[C@H]1CCNC1 [Example 10-85, (S)-3-[(S)-1-(2,6-Dichloro-3,5-difluorophenoxy)-3-methylbutyl]pyrrolidine]",≤ 10,,≤ 10,,,
"CCC(CC)[C@@H](Oc1cccc(Cl)c1Cl)[C@H]1CCNC1 [Example 11, (S)-3-[(R)-1-(2,3-Dichlorophenoxy)-2-ethylbutyl]pyrrolidine]",≤ 10,,≤ 10,,,
"CCC(CC)[C@H](Oc1cccc(Cl)c1Cl)[C@H]1CCNC1 [Example 12-1, (S)-3-[(S)-1-(2,3-Dichlorophenoxy)-2-ethylbutyl]pyrrolidine]",≤ 10,,≤ 10,,,

# Second part, the compound after the results:
IC50 (hSERT [1]) [nM],Ki (hSERT [2]) [nM],IC50 (hNET [3]) [nM],Ki (hNET [4]) [nM],SERT pIC50 (hSERT [1]),NET pIC50 (hNET [3]),SMILES
≤ 10,,≤ 100,,,,"CC(C)[C@H](Oc1cccc2ccccc12)[C@@H]1CCNC1 [Example 14-4, (R)-3-[(S)-2-Methyl-1-(naphthalen-1-yloxy)propyl]pyrrolidine]"
≤ 10,,≤ 10,,,,"CC(C)[C@@H](Oc1cccc2ccccc12)[C@H]1CCNC1 [Example 14-6, (S)-3-[(R)-2-Methyl-1-(naphthalen-1-yloxy)propyl]pyrrolidine]"
≤ 10,,≤ 100,,,,"CC(C)[C@@H](Oc1cccc2ccccc12)[C@@H]1CCNC1 [Example 14-7, (R)-3-[(R)-2-Methyl-1-(naphthalen-1-yloxy)propyl]pyrrolidine]"
≤ 10,,≤ 10,,,,"CC(C)C[C@H](Oc1cccc2ccccc12)[C@H]1CCNC1 [Example 14-8, (S)-3-[(S)-3-Methyl-1-(naphthalen-1-yloxy)butyl]pyrrolidine]"
≤ 10,,≤ 10,,,,"CC(C)C[C@@H](Oc1cccc2ccccc12)[C@H]1CCNC1 [Example 14-9, (S)-3-[(R)-3-Methyl-1-(naphthalen-1-yloxy)butyl]pyrrolidine]"
≤ 10,,≤ 10,,,,"Fc1c(Cl)ccc(O[C@@H](C2CC2)[C@H]2CCNC2)c1F [Example 16-48, (S)-3-[(S)-(4-Chloro-2,3-difluorophenoxy)cyclopropylmethyl]pyrrolidine]"
≤ 10,,≤ 10,,,,"Fc1c(Cl)ccc(O[C@H](C2CC2)[C@H]2CCNC2)c1F [Example 16-49, (S)-3-[(R)-(4-Chloro-2,3-difluorophenoxy)cyclopropylmethyl]pyrrolidine]"
≤ 100,,≤ 100,,,,"Fc1cc(Cl)cc(O[C@@H](C2CC2)[C@H]2CCNC2)c1Cl [Example 16-57, (S)-3-[(S)cyclopropyl-(2,5-dichloro-3-fluorophenoxy)methyl]pyrrolidine]"
≤ 100,,≤ 100,,,,"Cc1cc(Cl)cc(Cl)c1O[C@H](C1CC1)[C@H]1CCNC1 [Example 16-78, (S)-3-[(R)cyclopropyl-(2,4-dichloro-6-methylphenoxy)methyl]pyrrolidine]"
≤ 100,,≤ 10,,,,"COc1cc(Cl)cc(O[C@@H](C2CC2)[C@H]2CCNC2)c1 [Example 16-100, (S)-3-[(S)-(3-Chloro-5-methoxyphenoxy)cyclopropylmethyl]pyrrolidine]"
≤ 10,,≤ 100,,,,"Cc1cc(O[C@@H](C2CC2)[C@H]2CCNC2)cc(C)c1Cl [Example 16-101, (S)-3-[(S)-(4-Chloro-3,5-dimethylphenoxy)cyclopropylmethyl]pyrrolidine]"
≤ 10,,≤ 10,,,,"Clc1cccc(OC(C2CCCC2)C2CCNC2)c1Cl (stereo not shown) [Example 18-1, 3-[Cyclopentyl-(2,3-dichlorophenoxy)methyl]pyrrolidine]"
,,≤ 100,,≧8.0*,,"Cc1ccc(OC(C2CCCC2)C2CCNC2)c(Cl)c1 (stereo not shown) [Example 18-6, 3-[(2-Chloro-4-methylphenoxy)cyclopentylmethyl]pyrrolidine]"
≤ 10,,≤ 100,,,,"Cc1cc(Cl)ccc1OC(C1CCCC1)C1CCNC1 (stereo not shown) [Example 18-7, 3-[(4-Chloro-2-methylphenoxy)cyclopentylmethyl]pyrrolidine]"
≤ 100,,≤ 10,,,,"Clc1cccc(Cl)c1OC(C1CCCC1)C1CCNC1 (stereo not shown) [Example 18-8, 3-[Cyclopentyl-(2,6-dichlorophenoxy)methyl]pyrrolidine]"
≤ 10,,≤ 10,,,,"Clc1cc(Cl)cc(OC(C2CCCC2)C2CCNC2)c1 (stereo not shown) [Example 18-9, 3-[Cyclopentyl-(3,5-dichlorophenoxy)methyl]pyrrolidine]"
≤ 100,,,,,≧8.0*,"Clc1cc(Cl)cc(OC(C2CCCC2)C2CCNC2)c1 (stereo not shown) [Example 18-10, 3-[Cyclopentyl-(3,5-dichlorophenoxy)methyl]pyrrolidine]"
≤ 10,,≤ 100,,,,"Clc1ccc(OC(C2CCCC2)C2CCNC2)cc1 (stereo not shown) [Example 18-11, 3-[(4-Chlorophenoxy)cyclopentylmethyl]pyrrolidine]"
≤ 100,,≤ 100,,,,"Fc1ccc(OC(C2CCCC2)C2CCNC2)cc1 (stereo not shown) [Example 18-12, 3-[Cyclopentyl-(4-fluorophenoxy)methyl]pyrrolidine]"
